Assay results published in PMC9953660, “Using ΔK280 TauRD Folding Reporter Cells to Screen TRKB Agonists as Alzheimer’s Disease Treatment Strategy” (Biomolecules, 2023).

Columns and labels:
[1] = target: T1, E. coli-expressed ΔK280 TauRD protein (Homo sapiens, UniProt P10636, DEL597-597); test: Thioflavin T fluorescence ΔK280 TauRD aggregation assay; type: biochemical; details: TauRD protein 20 μM, 48 h at 37 °C; read-out: EC50 inhibiting ΔK280 TauRD aggregation
T1 construct: TauRD (Q^244-E^372 of Tau, NP_005901) aggregation; N-terminal Met (N); made in house; host or cells: E. coli
T1 sequence (P10636 with tags, fused parts or gaps isoform P10636-8 DEL280-280): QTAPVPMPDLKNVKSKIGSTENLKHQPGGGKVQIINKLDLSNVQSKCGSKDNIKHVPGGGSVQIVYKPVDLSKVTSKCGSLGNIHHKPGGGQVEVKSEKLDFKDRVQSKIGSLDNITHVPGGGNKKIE
Experimental: The anti-aggregation activity of congo red (positive control) and ZN/VB compounds (5–20 μM) was assessed using E. coli-expressed ΔK280 TauRD protein [33] and thioflavin T (Sigma-Aldrich) fluorescence assay. The trend of ΔK280 TauRD amyloid aggregate formation depicted with enhanced and red-shifted fluorescence was recorded by a FLx800 microplate fluorescence reader (BioTek Instruments), where the procedure was previously reported in detail.

[2] = tested on: ΔK280 TauRD-DsRed SH-SY5Y cells; test: High-content neurite outgrowth analysis (TUBB3 stain); type: cell-based, human; details: 10 μM
Experimental: (§1) ΔK280 TauRD-DsRed SH-SY5Y cells were plated in the presence of 10 μM retinoid acid (RA; Sigma-Aldrich) to promote neuronal differentiation. The next day, cells were added with congo red or ZN/VB compounds (2–10 μM) for 8 h pretreatment, followed by inducing ΔK280 TauRD-DsRed expression with doxycycline (2 μg/mL). On day 8, cell nuclei were stained with Hoechst 33342 (0.1 μg/mL; Thermo Scientific), and cell images acquired using ImageXpress Micro Confocal High-Content Imaging System (Molecular Devices, San Jose, CA, USA) with DAPI (4′,6-diamidino-2-phenylindole, for nuclei) and TRITC (tetramethylrhodamine, for DsRed) fluorescence filter sets. To detect ROS changes, 10 μM compound-treated cells were stained with Hoechst 33342 and 2′,7′-dichlorodihydrofluorescein diacetate (H2DCFDA, 10 μM) fluorescein (Invitrogen, Carlsbad, CA, USA), and cell images captured using DAPI and FITC (fluorescein isothiocyanate, for DCF) filters. For assessing differential neurite outgrowth, 10 μM compound-treated cells were fixed (paraformaldehyde, 4%), permeabilized (Triton X-100, 0.3%), and stained with class III β-tubulin (TUBB3, 1:1000) primary antibody (#802001, BioLegend, San Diego, CA, USA), followed by donkey anti-rabbit Alexa Fluor® 555 secondary antibody (1:1000; #A-31572, Invitrogen) and DAPI (0.1 μg/mL; Sigma-Aldrich) stains. The nuclei and neurite images were acquired with DAPI and TRITC fluorescence filters, respectively. All analyses of images were performed using MetaXpress software (Molecular Device).

caspase-6 = test: Caspase-6 activity assay in cell lysates; type: cell-based, human; details: uninduced = 100%, induced untreated 110.5%
Experimental: After being compounds-treated and RA-differentiated, cells were collected for caspase-1/6 and AChE activity measurements. Cells were lysed in lysis buffer with repeated freeze/thaw cycles and protein concentration in cell lysates quantitated. Types of substrates applied to detect each caspase’s activity were: YVAD-AFC for caspase-1 and VEID-AFC for caspase-6 (BioVision, Milpitas, CA, USA). The reaction mixtures were incubated for 1.5 h at 37 °C according to the manufacturer’s instructions. The fluorescence intensities with excitation/emission wavelengths at 400/505 nm were recorded by a FLx800 microplate fluorescence reader (BioTek Instruments). An AChE activity assay was performed according to the manufacturer’s instructions (Sigma-Aldrich), as described in the Ref. [28]. The mixture was incubated for 2–10 min at room temperature, and absorbance at 412 nm wavelength was measured by Multiskan™ GO Microplate Spectrophotometer (Thermo Scientific).

[3] = tested on: TRKB knockdown ΔK280 TauRD-DsRed SH-SY5Y cells; test: TRKB RNA interference: TRKB protein level and neurite outgrowth; type: cell-based, human; details: 10 μM
Experimental: as §1, with “For assessing differential neurite outgrowth, 10 μM compound-treated cells were fixed (paraformaldehyde, 4%), permeabilized (Triton X-100, 0.3%), and stained with class III β-tubulin (TUBB3, 1:1000) primary antibody (#802001, BioLegend, San Diego, CA, USA), followed by donkey anti-rabbit Alexa Fluor® 555 secondary antibody (1:1000; #A-31572, Invitrogen) and DAPI (0.1 μg/mL; Sigma-Aldrich) stains.” left out, “All analyses of images were performed using MetaXpress software (Molecular Device).” left out
Cells were collected and protein extracted as described. […] Protein signals were detected with chemiluminescent substrate (Millipore) using the ImageQuant™ LAS 4000 imager and analysis software (GE Healthcare, UK). […]

SMILES: O=C(/C=C/c1ccccc1O)c1c(O)c2ccccc2oc1=O [ZN-015, (E)-4-hydroxy-3-(3-(2-hydroxyphenyl)acryloyl)-2H-chromen-2-one]
- EC50 [1]: 13.2 µM
- neurite branch ([2]; induced untreated 0.74): 0.92
- neurite process ([2]; induced untreated 2.07): 2.34
- neurite length ([2]; induced untreated 30.6 μm): 40.7 μm
- caspase-6 activity (caspase-6): 99.8%
- neurite process ([3]; TRKB knockdown): 2.17
- neurite process ([3]; scrambled shRNA): 2.35
